Tested on: RSV Long strain
Assay: Viral Cytopathic Effect (CPE) Assay
Assay type: cell-based
Settings: human respiratory syncytial virus, 144 h; RSV Long strain (ATCC), cell viability after 6 days by Cell Counting kit-8
Protocol: Viral Cytopathic Effect (CPE) Assay
To measure anti-RSV activity of compounds, 96-well plates are seeded with 6×10^3 cells per well in Dulbecco's modified Eagle's medium (DMEM) containing 10% fetal bovine serum (FBS). Cells are infected the next day with sufficient RSV Long strain (ATCC) to produce an approximately 80-90% cytopathic effect after 6 days, in the presence of serial half-log diluted compound in a total volume of 200 μL per well. The viability of cells is assessed after 6 days using Cell Counting kit-8 (Dojindo Molecular Technologies). The absorbance at 450 nm and referenced at 630 nm is measured to determine 50% effective concentration (EC50).

EC50 | Compound
6 nM | CS(=O)(=O)[C@H]1C[C@H](n2c(CN3C(=O)C4(CC4)c4ccncc43)nc3cc(Cl)ccc32)C1 [Example 1-2, 1′-({5-Chloro-1-[trans-3-(methylsulfonyl)cyclobutyl]-1H-benzimidazol-2-yl}methyl)spiro[cyclopropane-1,3′-pyrrolo[2,3-c]pyridin]-2′(1′H)-one]
164 nM | O=C1NCCC1n1c(CN2C(=O)C3(CC3)c3ccncc32)nc2cc(Cl)ccc21 (centres unmarked) [Example 2-9, 1′-{[5-Chloro-1-(2-oxopyrrolidin-3-yl)-1H-benzimidazol-2-yl]methyl}spiro[cyclopropane-1,3′-pyrrolo[2,3-c]pyridin]-2′(1′H)-one]
23 nM | O=C1N(Cc2nc3cc(Cl)ccc3n2C2CCOCC2)c2cnccc2C12CC2 [Example 2-6, 1′-{[5-Chloro-1-(tetrahydro-2H-pyran-4-yl)-1H-benzimidazol-2-yl]methyl}spiro[cyclopropane-1,3′-pyrrolo[2,3-c]pyridin]-2′(1′H)-one]
3 nM | CC(C)C(=O)N1CC[C@@H](n2c(CN3C(=O)C4(CC4)c4ccncc43)nc3cc(Cl)ccc32)C1 [Example 11, 1′-({5-Chloro-1-[(3R)-1-(2-methylpropanoyl)pyrrolidin-3-yl]-1H-benzimidazol-2-yl}methyl)spiro[cyclopropane-1,3′-pyrrolo[2,3-c]pyridin]-2′(1′H)-one]
6 nM | O=C1N(Cc2nc3cc(Cl)ccc3n2C2CCS(=O)(=O)C2)c2cnccc2C12CC2 (centres unmarked) [Example 3-1, 1′-{[5-Chloro-1-(1,1-dioxidotetrahydrothiophen-3-yl)-1H-benzimidazol-2-yl]methyl}spiro[cyclopropane-1,3′-pyrrolo[2,3-c]pyridin]-2′(1′H)-one]
0.9 nM | O=C1N(Cc2nc3cc(Cl)cc(F)c3n2C2CS(=O)(=O)C2)c2cnccc2C12CC2 [Example 6, 1′-{[5-Chloro-1-(1,1-dioxidothietan-3-yl)-7-fluoro-1H-benzimidazol-2-yl]methyl}spiro[cyclopropane-1,3′-pyrrolo[2,3-c]pyridin]-2′(1′H)-one]
1.8 nM | CS(=O)(=O)N1CC(n2c(CN3C(=O)C4(CC4)c4ccncc43)nc3cc(Cl)ccc32)C1 [Example 12, 1′-({5-Chloro-1-[1-(methylsulfonyl)azetidin-3-yl]-1H-benzimidazol-2-yl}methyl)spiro[cyclopropane-1,3′-pyrrolo[2,3-c]pyridin]-2′(1′H)-one]
7 nM | O=C1N(Cc2nc3cc(Cl)ccc3n2[C@H]2C[C@@H](O)C2)c2cnccc2C12CC2 [Example 14-1, 1′-{[5-Chloro-1-(cis-3-hydroxycyclobutyl)-1H-benzimidazol-2-yl]methyl}spiro[cyclopropane-1,3′-pyrrolo[2,3-c]pyridin]-2′(1′H)-one]
15 nM | O=C1N(Cc2nc3cc(Cl)cnc3n2C2CCS(=O)(=O)C2)c2cnccc2C12CC2 (centres unmarked) [Example 2-13, 1′-{[6-Chloro-3-(1,1-dioxidotetrahydrothiophen-3-yl)-3H-imidazo[4,5-b]pyridin-2-yl]methyl}spiro[cyclopropane-1,3′-pyrrolo[2,3-c]pyridin]-2′(1′H)-one]
0.8 nM | O=C1N(Cc2nc3cc(Cl)ccc3n2[C@H]2C[C@H](O)C2)c2cnccc2C12CC2 [Example 14-2, 1′-{[5-Chloro-1-(trans-3-hydroxycyclobutyl)-1H-benzimidazol-2-yl]methyl}spiro[cyclopropane-1,3′-pyrrolo[2,3-c]pyridin]-2′(1′H)-one]
13 nM | O=C1N(Cc2nc3cc(Cl)cc(F)c3n2[C@H]2CCS(=O)(=O)C2)c2cnccc2C12CC2 [Example 9-1, 1′-({5-Chloro-1-[(3S)-1,1-dioxidotetrahydrothiophen-3-yl]-7-fluoro-1H-benzimidazol-2-yl}methyl)spiro[cyclopropane-1,3′-pyrrolo[2,3-c]pyridin]-2′(1′H)-one]
122 nM | O=C1N(Cc2nc3cc(Cl)ccc3n2C(CO)CO)c2cnccc2C12CC2 [Example 2-16, 1′-{[5-Chloro-1-(1,3-dihydroxypropan-2-yl)-1H-benzimidazol-2-yl]methyl}spiro[cyclopropane-1,3′-pyrrolo[2,3-c]pyridin]-2′(1′H)-one]
32 nM | O=C1N(Cc2nc3cc(Cl)ccc3n2C2CCCC2)c2cnccc2C12CC2 [Example 2-3, 1′-[(5-Chloro-1-cyclopentyl-1H-benzimidazol-2-yl)methyl]spiro[cyclopropane-1,3′-pyrrolo[2,3-c]pyridin]-2′(1′H)-one]
17 nM | O=C1N(Cc2nc3cc(Cl)ccc3n2C2CCC(F)(F)C2)c2cnccc2C12CC2 (centres unmarked) [Example 2-11, 1′-{[5-Chloro-1-(3,3-difluorocyclopentyl)-1H-benzimidazol-2-yl]methyl}spiro[cyclopropane-1,3′-pyrrolo[2,3-c]pyridin]-2′(1′H)-one]
2 nM | O=C1CCC(n2c(CN3C(=O)C4(CC4)c4ccncc43)nc3cc(Cl)ccc32)CN1 (centres unmarked) [Example 7-1, 1′-{[5-Chloro-1-(6-oxopiperidin-3-yl)-1H-benzimidazol-2-yl]methyl}spiro[cyclopropane-1,3′-pyrrolo[2,3-c]pyridin]-2′(1′H)-one]
397 nM | CC1(C)[C@H](n2c(CN3C(=O)C4(CC4)c4ccncc43)nc3cc(Cl)ccc32)CCS1(=O)=O (stereo in doubt) [Example 13, 1′-{[5-Chloro-1-(2,2-dimethyl-1,1-dioxidotetrahydrothiophen-3-yl)-1H-benzimidazol-2-yl]methyl}spiro[cyclopropane-1,3′-pyrrolo[2,3-c]pyridin]-2′(1′H)-one]

Tested on: RSV infection
Assay: not given
Settings: intramuscularly at 15 mg/kg once a month for the duration of RSV season, selected infants; cited from earlier work

Compound | reduction of hospitalization rate caused by RSV infection
palivizumab: humanized monoclonal antibody against RSV fusion (F) protein approved for prophylaxis in high-risk infants | 45-55%
